From article PMC7334220, “Diamond Blackfan anemia is mediated by hyperactive Nemo-like kinase” (Nature Communications, 2020)
“And” between values parts separate entries of the source, which are not always exact repeats. Equal values may be shown once.

Tests used:
[1] = system: RPS19-insufficient Lin-Kit+ cells; experiment: Erythroid differentiation (Ter119+) of Lin-Kit+ cells from tetracycline-inducible shRPS19 mice; type: cell-based, mouse; settings: SD208 with doxycycline; 8 days; three mice; without SD208 24.3, 20.3, 18.5%; Fig. 8b
Description: Cells were counted and assessed for cell surface expression of CD235. b Lin-Kit^+ hematopoietic progenitors were obtained from three mouse embryos expressing tetracycline-inducible shRNA against RPS19 at day E14.5 or three untreated mice, and thee mature RPL11^+/+ or three mature RPL11^+/lox mice treated with tamoxifen for eight weeks. […] Values were expressed as a percentage relative to untreated controls. c, d Intracellular phosphorylation of NLK at […] was determined by capillary electrophoresis using the Peggy SueTM Automated Western blotting platform. […] After counting the total cell population, the ratio of CD235^+ erythroblasts was determined by flow cytometry and number of CD235^+ erythroblasts calculated. This was expressed as a percentage of the average number of erythroid cells present in untreated healthy controls. f NLK phosphorylation was assessed by capillary electrophoresis as above. Bars represent means ± SD with individual data points overlaid. […] Statistics: two-tailed Student's t test, significant *p < 0.05. Also see Supplementary Fig. 8. Source data are provided as a Source Data file. […] RPS19-insufficiency reduced Ter119^+ erythroblasts to 24.3, 20.3, and 18.5% of controls differentiated in the absence of doxycycline.

[2] = system: RPL11-insufficient cord blood CD34+ HSPCs; experiment: In vitro differentiation of cord blood CD34+ HSPCs transduced with shRNA against RPL11; type: cell-based; settings: Homo sapiens, 360 h; read-out: erythroid expansion in RPL11-insufficiency, % of control
Excerpt: Fig. 8 NLK inhibition increases expansion of erythroid progenitors from human and murine models of DBA. a Human cord blood CD34^+ progenitors were transduced with lentivirus co-expressing GFP with shRNA against luciferase (shLuc), RPS19 (shRPS19), or RPL11 (shRPL11). […] Cells were counted and assessed for cell surface expression of CD235. b Lin-Kit^+ hematopoietic progenitors were obtained from three mouse embryos expressing tetracycline-inducible shRNA against RPS19 at day E14.5 or three untreated mice, and thee mature RPL11^+/+ or three mature RPL11^+/lox mice treated with tamoxifen for eight weeks. […] Values were expressed as a percentage relative to untreated controls. c, d Intracellular phosphorylation of NLK at Thr298 was determined by capillary electrophoresis using the Peggy Sue™ Automated Western blotting platform. After lysis, 4 µg of protein from the CD235^+ population was probed against pThr298-NLK and normalized to GAPDH. […] After counting the total cell population, the ratio of CD235^+ erythroblasts was determined by flow cytometry and number of CD235^+ erythroblasts calculated. This was expressed as a percentage of the average number of erythroid cells present in untreated healthy controls. f NLK phosphorylation was assessed by capillary electrophoresis as above. Bars represent means ± SD with individual data points overlaid. […]

[3] = system: RPL11-insufficient Lin-Kit+ HSPCs; experiment: Erythroid differentiation of Lin-Kit+ HSPCs from tamoxifen-treated RPL11+/lox mice; type: cell-based, mouse; settings: SD208; 8 days; three RPL11+/lox mice; without SD208 31.2, 26.4, 18.6%; Fig. 8b
Description: Cells were counted and assessed for cell surface expression of CD235. b Lin-Kit^+ hematopoietic progenitors were obtained from three mouse embryos expressing tetracycline-inducible shRNA against RPS19 at day E14.5 or three untreated mice, and thee mature RPL11^+/+ or three mature RPL11^+/lox mice treated with tamoxifen for eight weeks. […] Values were expressed as a percentage relative to untreated controls. c, d Intracellular phosphorylation of NLK at […] was determined by capillary electrophoresis using the Peggy SueTM Automated Western blotting platform. […] After counting the total cell population, the ratio of CD235^+ erythroblasts was determined by flow cytometry and number of CD235^+ erythroblasts calculated. This was expressed as a percentage of the average number of erythroid cells present in untreated healthy controls. f NLK phosphorylation was assessed by capillary electrophoresis as above. Bars represent means ± SD with individual data points overlaid. […] Statistics: two-tailed Student's t test, significant *p < 0.05. Also see Supplementary Fig. 8. Source data are provided as a Source Data file. Three mature RPL11^+/lox mice were treated with tamoxifen for eight weeks to induce heterozygous deletion of RPL11. As controls, three different RPL11^+/+ littermates of the same mouse strain were treated with tamoxifen.

Which “Ter119+ erythroblasts, % of controls differentiated without doxycycline” value [1] does the source give for `Fc1ccc(Cl)cc1-c1nc(Nc2ccncc2)c2nccnc2n1` [SD208] here?
The value was 83.2% and 81.1% and 76.6%.

What about the activity at 5 µM [2] of the same compound?
The activity at 5 µM was 36.7%.

What about the “erythropoiesis, % of controls” value [3] of the same compound?
Its value is 57.3% and 56.8% and 50.3%.
